Data published in patent publication US9422285B2, “Substituted pyrazolo[1,5-A]-pyridine-3-carboxamides and use thereof” (Bayer Pharma Aktiengesellschaft, priority 2014, dated 2016).
Counter-ions that a name gives are not always drawn.

target: T1, recombinant guanylate cyclase reporter cell line (Rattus norvegicus, UniProt P19686+P20595); assay: Effect on a recombinant guanylate cyclase reporter cell line (B-2); type: cell-based; conditions: in some cases mean values for individual determinations
T1 construct: expressed in transfected cells
T1 sequence (P19686 1-690): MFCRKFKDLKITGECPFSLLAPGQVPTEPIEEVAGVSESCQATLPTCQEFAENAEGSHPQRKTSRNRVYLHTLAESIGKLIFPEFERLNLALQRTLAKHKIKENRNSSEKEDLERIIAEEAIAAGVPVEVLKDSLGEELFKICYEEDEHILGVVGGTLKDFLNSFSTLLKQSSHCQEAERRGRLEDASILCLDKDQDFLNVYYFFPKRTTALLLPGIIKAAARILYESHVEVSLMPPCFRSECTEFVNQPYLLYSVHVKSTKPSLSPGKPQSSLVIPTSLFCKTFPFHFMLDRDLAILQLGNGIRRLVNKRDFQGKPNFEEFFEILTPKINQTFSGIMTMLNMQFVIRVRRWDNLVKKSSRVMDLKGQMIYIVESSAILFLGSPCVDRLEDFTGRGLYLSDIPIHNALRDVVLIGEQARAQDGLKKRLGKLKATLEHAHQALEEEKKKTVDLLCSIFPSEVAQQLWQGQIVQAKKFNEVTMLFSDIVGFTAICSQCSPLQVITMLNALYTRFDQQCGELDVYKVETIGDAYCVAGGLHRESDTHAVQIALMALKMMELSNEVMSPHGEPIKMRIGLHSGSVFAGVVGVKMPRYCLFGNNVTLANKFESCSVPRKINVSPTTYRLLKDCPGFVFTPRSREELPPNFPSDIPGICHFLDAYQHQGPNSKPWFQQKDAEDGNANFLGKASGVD
T1 sequence (P20595 1-619): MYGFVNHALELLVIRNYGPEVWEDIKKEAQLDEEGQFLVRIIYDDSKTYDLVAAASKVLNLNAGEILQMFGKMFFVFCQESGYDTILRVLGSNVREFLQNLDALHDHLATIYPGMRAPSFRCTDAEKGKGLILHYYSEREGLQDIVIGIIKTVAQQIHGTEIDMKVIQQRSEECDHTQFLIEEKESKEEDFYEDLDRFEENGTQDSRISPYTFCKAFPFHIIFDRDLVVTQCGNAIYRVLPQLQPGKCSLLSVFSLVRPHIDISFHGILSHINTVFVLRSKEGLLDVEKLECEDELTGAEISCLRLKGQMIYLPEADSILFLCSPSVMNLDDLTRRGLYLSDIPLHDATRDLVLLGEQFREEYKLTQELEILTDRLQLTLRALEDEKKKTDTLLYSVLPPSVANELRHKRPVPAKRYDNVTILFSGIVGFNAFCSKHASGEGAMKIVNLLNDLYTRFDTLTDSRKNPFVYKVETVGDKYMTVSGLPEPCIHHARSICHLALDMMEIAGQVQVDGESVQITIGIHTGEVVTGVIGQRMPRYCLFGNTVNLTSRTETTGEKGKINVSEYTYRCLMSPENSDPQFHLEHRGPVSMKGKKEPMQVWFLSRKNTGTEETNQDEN
Description: B-2. Effect on a Recombinant Guanylate Cyclase Reporter Cell Line
The cellular effect of the inventive compounds is determined using a recombinant guanylate cyclase reporter cell line, as described in F. Wunder et al., Anal. Biochem. 339, 104-112 (2005).
Representative MEC values (MEC=minimum effective concentration) for the inventive compounds are shown in the table below (in some cases as mean values for individual determinations): […]

Row | Structure (SMILES) | MEC (minimum effective concentration) [µM]
1 | Cc1cc(OCc2c(F)cccc2F)n2nc(C)c(C(=O)NCC(N)c3ccc4ncccc4c3)c2c1 (racemic) [Example 103, rac-N-[2-Amino-2-(quinolin-6-yl)ethyl]-7-[(2,6-difluorobenzyl)oxy]-2,5-dimethylpyrazolo[1,5-a]pyridine-3-carboxamide] | 10
2 | Cc1cc(OCc2c(F)ccc(F)c2F)n2nc(C)c(C(=O)NCc3ccccc3-n3ccnc3)c2c1 [Example 32, N-[2-(1H-Imidazol-1-yl)benzyl]-2,5-dimethyl-7-[(2,3,6-trifluorobenzyl)oxy]pyrazolo[1,5-a]pyridine-3-carboxamide] | 0.3
3 | Cc1cc(OCc2c(F)cccc2F)n2nc(C)c(C(=O)NC3CCCc4ccccc43)c2c1 (racemic) [Example 138, rac-7-[(2,6-Difluorobenzyl)oxy]-2,5-dimethyl-N-(1,2,3,4-tetrahydronaphthalen-1-yl)pyrazolo[1,5-a]pyridine-3-carboxamide] | 0.1
4 | Cc1cc(OCc2c(F)cccc2F)n2nc(C)c(C(=O)NCC(N)c3csc(C)n3)c2c1 (racemic) [Example 73, rac-N-[2-Amino-2-(2-methyl-1,3-thiazol-4-yl)ethyl]-7-[(2,6-difluorobenzyl)oxy]-2,5-dimethylpyrazolo[1,5-a]pyridine-3-carboxamide trifluoroacetate] | 3.0
5 | Cc1cc(OCc2c(F)ccc(F)c2F)n2nc(C)c(C(=O)NC(C)c3nc(C(F)(F)F)no3)c2c1 (racemic) [Example 19, rac-2,5-Dimethyl-7-[(2,3,6-trifluorobenzyl)oxy]-N-{1-[3-(trifluoromethyl)-1,2,4-oxadiazol-5-yl]ethyl}pyrazolo[1,5-a]pyridine-3-carboxamide] | 0.3
6 | Cc1cc(OCc2c(F)cccc2F)n2nc(C)c(C(=O)NC3CCCc4cc(F)ccc43)c2c1 (racemic) [Example 150, rac-7-[(2,6-Difluorobenzyl)oxy]-N-(6-fluoro-1,2,3,4-tetrahydronaphthalen-1-yl)-2,5-dimethylpyrazolo[1,5-a]pyridine-3-carboxamide] | 0.3
7 | Cc1cc(OCc2c(F)cccc2F)n2nc(C)c(C(=O)NC3CC(C)(C)C3N)c2c1 (centres unmarked) [Example 101, N-(2-Amino-3,3-dimethylcyclobutyl)-7-[(2,6-difluorobenzyl)oxy]-2,5-dimethylpyrazolo[1,5-a]pyridine-3-carboxamide] | 3.0
8 | CCCC(C)(N)CNC(=O)c1c(C)nn2c(OCCC(C)C)cc(C)cc12 (racemic) [Example 160, rac-N-(2-Amino-2-methylpentyl)-2,5-dimethyl-7-(3-methylbutoxy)pyrazolo[1,5-a]pyridine-3-carboxamide] | 3.0
9 | Cc1cc(OCc2c(F)cccc2F)n2nc(C)c(C(=O)NCC3(N)CCCCC3)c2c1 [Example 124, N-[(1-Aminocyclohexyl)methyl]-7-[(2,6-difluorobenzyl)oxy]-2,5-dimethylpyrazolo[1,5-a]pyridine-3-carboxamide] | 0.3
10 | COC(=O)c1cccc(C(N)CNC(=O)c2c(C)nn3c(OCc4c(F)cccc4F)cc(C)cc23)c1 (racemic) [Example 114, rac-Methyl 3-{1-amino-2-[({7-[(2,6-difluorobenzyl)oxy]-2,5-dimethylpyrazolo[1,5-a]pyridin-3-yl}carbonyl)amino]ethyl}benzoate] | 10

Second part, the compound after the results:

Row | MEC (minimum effective concentration) [µM] | Structure (SMILES)
11 | 10 | Cc1cc(OCc2c(F)cccc2F)n2nc(C)c(C(=O)NCC3CNC(=O)O3)c2c1 (racemic) [Example 100, rac-7-[(2,6-Difluorobenzyl)oxy]-2,5-dimethyl-N-[(2-oxo-1,3-oxazolidin-5-yl)methyl]pyrazolo[1,5-a]pyridine-3-carboxamide]
12 | 0.3 | Cc1cc(OCc2c(F)cccc2F)n2nc(C)c(C(=O)NCC(C)(N)CCF)c2c1 (single isomer, unassigned) [Example 49, ent-N-(2-Amino-4-fluoro-2-methylbutyl)-7-[(2,6-difluorobenzyl)oxy]-2,5-dimethylpyrazolo[1,5-a]pyridine-3-carboxamide]
13 | 3.0 | Cc1cc(OCc2c(F)cccc2F)n2nc(C)c(C(=O)NC3CCC3(C)N)c2c1 (racemic) [Example 91, rac-N-(2-Amino-2-methylcyclobutyl)-7-[(2,6-difluorobenzyl)oxy]-2,5-dimethylpyrazolo[1,5-a]pyridine-3-carboxamide]
14 | 3.0 | Cc1cc(OCc2c(F)cccc2F)n2nc(C)c(C(=O)NC3CCC(N)C3)c2c1 (racemic) [Example 130, rac-N-(3-Aminocyclopentyl)-7-[(2,6-difluorobenzyl)oxy]-2,5-dimethylpyrazolo[1,5-a]pyridine-3-carboxamide]
15 | 0.3 | Cc1cc(OCc2c(F)cccc2F)n2nc(C)c(C(=O)NC3CCCCNC3)c2c1 (racemic) [Example 127, rac-N-(Azepan-3-yl)-7-[(2,6-difluorobenzyl)oxy]-2,5-dimethylpyrazolo[1,5-a]pyridine-3-carboxamide]
16 | 1.0 | Cc1cc(OCc2c(F)cccc2F)n2nc(C)c(C(=O)NCC(C)(N)CC(F)F)c2c1 (single isomer, unassigned) [Example 47, ent-N-(2-Amino-4,4-difluoro-2-methylbutyl)-7-[(2,6-difluorobenzyl)oxy]-2,5-dimethylpyrazolo[1,5-a]pyridine-3-carboxamide]
17 | 0.3 | Cc1cc(OCc2c(F)cccc2F)n2nc(C)c(C(=O)NCC3(N)CC3)c2c1 [Example 118, N-[(1-Aminocyclopropyl)methyl]-7-[(2,6-difluorobenzyl)oxy]-2,5-dimethylpyrazolo[1,5-a]pyridine-3-carboxamide]
18 | 1.0 | Cc1cc(OCc2c(F)cccc2F)n2nc(C)c(C(=O)NCC(C)(N)CF)c2c1 (single isomer, unassigned) [Example 40, ent-N-(2-Amino-3-fluoro-2-methylpropyl)-7-[(2,6-difluorobenzyl)oxy]-2,5-dimethylpyrazolo[1,5-a]pyridine-3-carboxamide]
19 | 2.0 | Cc1cc(OCc2c(F)cccc2F)n2nc(C)c(C(=O)NCC(C)(N)CC(F)F)c2c1 (single isomer, unassigned) [Example 46, ent-N-(2-Amino-4,4-difluoro-2-methylbutyl)-7-[(2,6-difluorobenzyl)oxy]-2,5-dimethylpyrazolo[1,5-a]pyridine-3-carboxamide]
20 | 3.0 | Cc1cc(OCc2c(F)cccc2F)n2nc(C)c(C(=O)NCC3(N)COC3)c2c1 [Example 60, N-[(3-Aminooxetan-3-yl)methyl]-7-[(2,6-difluorobenzyl)oxy]-2,5-dimethylpyrazolo[1,5-a]pyridine-3-carboxamide]
21 | 1.0 | Cc1cc(OCc2c(F)cccc2F)n2nc(C)c(C(=O)N[C@@H]3CNC[C@@H]3F)c2c1 (relative stereo) [Example 128, rel-7-[(2,6-Difluorobenzyl)oxy]-N-[(3R,4S)-4-fluoropyrrolidin-3-yl]-2,5-dimethylpyrazolo[1,5-a]pyridine-3-carboxamide]
22 | 1.0 | Cc1cc(OCc2c(F)cccc2F)n2nc(C)c(C(=O)NCC(F)(F)CN)c2c1 [Example 81, N-(3-Amino-2,2-difluoropropyl)-7-[(2,6-difluorobenzyl)oxy]-2,5-dimethylpyrazolo[1,5-a]pyridine-3-carboxamide]
23 | 3.0 | Cc1cc(OCc2c(F)cccc2F)n2nc(C)c(C(=O)NCC3CCC(C#N)CC3)c2c1 (centres unmarked) [Example 62, N-[(4-Cyanocyclohexyl)methyl]-7-[(2,6-difluorobenzyl)oxy]-2,5-dimethylpyrazolo[1,5-a]pyridine-3-carboxamide]
